Experimental data as given in US20260215428A1, “WEED CONTROL METHOD” (SYNGENTA CROP PROTECTION AG, priority 2023, published 2026).

Tests used:
Format in all cases: in vivo
Eleusine indica [1] = assay: Further glasshouse test versus other ACCase-inhibiting herbicides, Table B2-2; conditions: 21 days after application
Text: (§1) Further tests were employed to test the efficacy of a compound of Formula I versus other ACCase-inhibiting herbicides. The five main targets were Lolium multiflorum, Eleusine indica, Digitaria insularis, Sorghum halepense and Echinochloa crus-galli. Collectively, the populations contained all the major target-site resistance mutations affecting ACCase herbicides. Two L. multiflorum (LM-NTSR-1 and LM-NTSR-2) and one E. crus-galli (ECG-NTSR-1) populations were characterised exclusively by non-target-site resistance (“NTSR”). The target-site resistant L. multiflorum and E. indication populations were 100% homozygous for different ACCase mutations whilst the D. insularis, S. halepense and E. crus-galli samples contained a mixture of homozygous wild and mutant individuals at different genotypic frequencies. Additional underlying NTSR cannot be ruled out in the populations characterised by target-site resistance.
(§2) Around 50 seeds of each of the 24 weed populations were sown in 12-cm pots containing a mixture of peat and compost in a 1:1 ratio. The pots were watered, fertilised and kept in controlled glasshouse conditions set at 24° C./16 hr day, 18° C. night, 65% relative humidity, and a photon flux density of approximately 250 μmol quanta m^−2 s^−1 for Lolium multiflorum. The E. indica, D. insularis, S. halepense and E. crus-galli plants were kept in a separate glasshouse bay characterised by a 17 H photoperiod of 180 μmol m^−2 s^−1 with temperatures of 25° C. day and 19° C. night and 65% relative humidity. When the plants were at the two to four-leaf stage, they were treated with the various ACCase-inhibiting herbicides at 0, 15, 30, 60, 120 and 240 g ai ha^−1 in a spray cabinet mounted with a single mobile Teejet flat fan nozzle (11002VS) calibrated to deliver 200 L ha^−1 at 200 kPa. The L. multiflorum populations were treated by a compound of Formula Ic, clodinafop-propargyl, pinoxaden, cycloxydim and clethodim and the warm season grass weeds E. indica, D. insularis, S. halepense and E. crus-galli were sprayed with a Compound Ic and the commonly employed haloxyfop-methyl and clethodim. Three replicate pots were used per population. Plants were assessed for visual damage compared to the untreated control 21 days after application (0=0% damage; 100=100% damage).

Digitaria insularis = assay: Further glasshouse test versus other ACCase-inhibiting herbicides, Table B2-3; conditions: 21 days after application
Text: as §1, §2

Eleusine indica [2] = assay: Glasshouse post-emergence test, visual damage, Tables B1-2 and B1-3; conditions: 14 days after application
Procedure: Seeds of a variety of test species are sown in standard soil in pots. For each treatment, three replicate pots containing 10-15 plants per one-inch pot were sprayed at the 2-3 leaf stage. […] The test plants are then grown in a glasshouse under controlled conditions in a glasshouse (at 24/16° C., day/night; 14 hours light; 65% humidity) and watered twice daily. Plants were assessed for visual damage compared to the untreated control 14 days after application (0=0% damage; 100=100% damage).

Setaria viridis = assay: Glasshouse post-emergence test, visual damage, Table B1-5; conditions: 14 days after application
Procedure: Seeds of a variety of test species are sown in standard soil in pots. For each treatment, three replicate pots containing 10-15 plants per one-inch pot were sprayed at the 2-3 leaf stage. Clethodim and Compound (Ic) were each applied at 15, 30, 60 and 120 g ai/ha. The test plants are then grown in a glasshouse under controlled conditions in a glasshouse (at 24/16° C., day/night; 14 hours light; 65% humidity) and watered twice daily. Plants were assessed for visual damage compared to the untreated control 14 days after application (0=0% damage; 100=100% damage).

## CC#Cc1ccc(C2=C(OC(=O)OC)C3CCC(C3)C2=O)c(OC)c1 (stereo not drawn) [Compound Ic]
Eleusine indica [1]; biotype D2078G, 15 g/ha
  visual damage: 88%
Eleusine indica [1]; biotype D2078G, 30 g/ha
  visual damage: 100%
Eleusine indica [1]; biotype D2078G, 60 g/ha
  visual damage: 100%
Eleusine indica [1]; biotype D2078G, 120 g/ha
  visual damage: 100%
Eleusine indica [1]; biotype D2078G, 240 g/ha
  visual damage: 100%
Eleusine indica [1]; biotype G2096A, 15 g/ha
  visual damage: 93%
Eleusine indica [1]; biotype G2096A, 30 g/ha
  visual damage: 98%
Eleusine indica [1]; biotype G2096A, 60 g/ha
  visual damage: 100%
Eleusine indica [1]; biotype G2096A, 120 g/ha
  visual damage: 100%
Eleusine indica [1]; biotype G2096A, 240 g/ha
  visual damage: 100%
Eleusine indica [1]; biotype I2041N, 15 g/ha
  visual damage: 50%
Eleusine indica [1]; biotype I2041N, 30 g/ha
  visual damage: 98%
Eleusine indica [1]; biotype I2041N, 60 g/ha
  visual damage: 100%
Eleusine indica [1]; biotype I2041N, 120 g/ha
  visual damage: 100%
Eleusine indica [1]; biotype I2041N, 240 g/ha
  visual damage: 100%
Eleusine indica [1]; biotype Sensitive, 15 g/ha
  visual damage: 100%
Eleusine indica [1]; biotype Sensitive, 30 g/ha
  visual damage: 100%
Eleusine indica [1]; biotype Sensitive, 60 g/ha
  visual damage: 100%
Eleusine indica [1]; biotype Sensitive, 120 g/ha
  visual damage: 100%
Eleusine indica [1]; biotype Sensitive, 240 g/ha
  visual damage: 100%
Eleusine indica [1]; biotype W2027C, 15 g/ha
  visual damage: 100%
Eleusine indica [1]; biotype W2027C, 30 g/ha
  visual damage: 100%
Eleusine indica [1]; biotype W2027C, 60 g/ha
  visual damage: 100%
Eleusine indica [1]; biotype W2027C, 120 g/ha
  visual damage: 100%
Eleusine indica [1]; biotype W2027C, 240 g/ha
  visual damage: 100%
Digitaria insularis; biotype Sensitive, 15 g/ha
  visual damage: 100%
Digitaria insularis; biotype Sensitive, 30 g/ha
  visual damage: 100%
Digitaria insularis; biotype Sensitive, 60 g/ha
  visual damage: 100%
Digitaria insularis; biotype Sensitive, 120 g/ha
  visual damage: 100%
Digitaria insularis; biotype Sensitive, 240 g/ha
  visual damage: 100%
Digitaria insularis; biotype W2027C, 15 g/ha
  visual damage: 100%
Digitaria insularis; biotype W2027C, 30 g/ha
  visual damage: 100%
Digitaria insularis; biotype W2027C, 60 g/ha
  visual damage: 100%
Digitaria insularis; biotype W2027C, 120 g/ha
  visual damage: 100%
Digitaria insularis; biotype W2027C, 240 g/ha
  visual damage: 100%
Eleusine indica [2]; Table B1-2, biotype 87% I1781L (heterozygous), 15 g/ha
  visual damage: 97%
Eleusine indica [2]; Table B1-2, biotype 87% I1781L (heterozygous), 30 g/ha
  visual damage: 100%
Eleusine indica [2]; Table B1-2, biotype 87% I1781L (heterozygous), 60 g/ha
  visual damage: 100%
Eleusine indica [2]; Table B1-2, biotype 87% I1781L (heterozygous), 120 g/ha
  visual damage: 100%
Eleusine indica [2]; Table B1-2, biotype D2078G + W2027C (heterozygous), first entry, 15 g/ha
  visual damage: 87%
Eleusine indica [2]; Table B1-2, biotype D2078G + W2027C (heterozygous), first entry, 30 g/ha
  visual damage: 100%
Eleusine indica [2]; Table B1-2, biotype D2078G + W2027C (heterozygous), first entry, 60 g/ha
  visual damage: 100%
Eleusine indica [2]; Table B1-2, biotype D2078G + W2027C (heterozygous), first entry, 120 g/ha
  visual damage: 100%
Eleusine indica [2]; Table B1-2, biotype D2078G + W2027C (heterozygous), second entry, 15 g/ha
  visual damage: 83%
Eleusine indica [2]; Table B1-2, biotype D2078G + W2027C (heterozygous), second entry, 30 g/ha
  visual damage: 100%
Eleusine indica [2]; Table B1-2, biotype D2078G + W2027C (heterozygous), second entry, 60 g/ha
  visual damage: 100%
Eleusine indica [2]; Table B1-2, biotype D2078G + W2027C (heterozygous), second entry, 120 g/ha
  visual damage: 100%
Eleusine indica [2]; Table B1-2, biotype I2041N (heterozygous), 15 g/ha
  visual damage: 70%
Eleusine indica [2]; Table B1-2, biotype I2041N (heterozygous), 30 g/ha
  visual damage: 100%
Eleusine indica [2]; Table B1-2, biotype I2041N (heterozygous), 60 g/ha
  visual damage: 100%
Eleusine indica [2]; Table B1-2, biotype I2041N (heterozygous), 120 g/ha
  visual damage: 100%
Eleusine indica [2]; Table B1-2, biotype NTSR (non-target site resistance), 1 g/ha
  visual damage: 20%
Eleusine indica [2]; Table B1-2, biotype NTSR (non-target site resistance), 2 g/ha
  visual damage: 40%
Eleusine indica [2]; Table B1-2, biotype NTSR (non-target site resistance), 4 g/ha
  visual damage: 60%
Eleusine indica [2]; Table B1-2, biotype NTSR (non-target site resistance), 8 g/ha
  visual damage: 73%
Eleusine indica [2]; Table B1-2, biotype Sensitive, 15 g/ha
  visual damage: 100%
Eleusine indica [2]; Table B1-2, biotype Sensitive, 30 g/ha
  visual damage: 100%
Eleusine indica [2]; Table B1-2, biotype Sensitive, 60 g/ha
  visual damage: 100%
Eleusine indica [2]; Table B1-2, biotype Sensitive, 120 g/ha
  visual damage: 100%
Eleusine indica [2]; Table B1-3, Pop1 (mix of sensitive, D2078G and G2096A biotypes), 15 g/ha
  visual damage: 98%
Eleusine indica [2]; Table B1-3, Pop1 (mix of sensitive, D2078G and G2096A biotypes), 30 g/ha
  visual damage: 100%
Eleusine indica [2]; Table B1-3, Pop1 (mix of sensitive, D2078G and G2096A biotypes), 60 g/ha
  visual damage: 100%
Eleusine indica [2]; Table B1-3, Pop1 (mix of sensitive, D2078G and G2096A biotypes), 120 g/ha
  visual damage: 100%
Eleusine indica [2]; Table B1-3, Pop2 (mix of sensitive, D2078G and G2096A biotypes), 15 g/ha
  visual damage: 86%
Eleusine indica [2]; Table B1-3, Pop2 (mix of sensitive, D2078G and G2096A biotypes), 30 g/ha
  visual damage: 100%
Eleusine indica [2]; Table B1-3, Pop2 (mix of sensitive, D2078G and G2096A biotypes), 60 g/ha
  visual damage: 100%
Eleusine indica [2]; Table B1-3, Pop2 (mix of sensitive, D2078G and G2096A biotypes), 120 g/ha
  visual damage: 100%
Eleusine indica [2]; Table B1-3, biotype Sensitive, 15 g/ha
  visual damage: 100%
Eleusine indica [2]; Table B1-3, biotype Sensitive, 30 g/ha
  visual damage: 100%
Eleusine indica [2]; Table B1-3, biotype Sensitive, 60 g/ha
  visual damage: 100%
Eleusine indica [2]; Table B1-3, biotype Sensitive, 120 g/ha
  visual damage: 100%
Setaria viridis; biotype GG2078 (homozygous), 15 g/ha
  visual damage: 50%
Setaria viridis; biotype GG2078 (homozygous), 30 g/ha
  visual damage: 73%
Setaria viridis; biotype GG2078 (homozygous), 60 g/ha
  visual damage: 98%
Setaria viridis; biotype GG2078 (homozygous), 120 g/ha
  visual damage: 98%
Setaria viridis; biotype II1781 (homozygous), 15 g/ha
  visual damage: 70%
Setaria viridis; biotype II1781 (homozygous), 30 g/ha
  visual damage: 90%
Setaria viridis; biotype II1781 (homozygous), 60 g/ha
  visual damage: 98%
Setaria viridis; biotype II1781 (homozygous), 120 g/ha
  visual damage: 100%
Setaria viridis; biotype LL1781 (homozygous), 15 g/ha
  visual damage: 60%
Setaria viridis; biotype LL1781 (homozygous), 30 g/ha
  visual damage: 90%
Setaria viridis; biotype LL1781 (homozygous), 60 g/ha
  visual damage: 98%
Setaria viridis; biotype LL1781 (homozygous), 120 g/ha
  visual damage: 100%
Setaria viridis; biotype Sensitive, 15 g/ha
  visual damage: 87%
Setaria viridis; biotype Sensitive, 30 g/ha
  visual damage: 93%
Setaria viridis; biotype Sensitive, 60 g/ha
  visual damage: 100%
Setaria viridis; biotype Sensitive, 120 g/ha
  visual damage: 100%
